In assay [1] the test system is MDA-MB-468 cells (His-273 p53 mutation). Description: Transactivation test (pLUC-BAX, pLUC-p21) in Adriamycin treated MDA-MB-468 cells. The format is cell-based, human. The note with it: MDA-MB-468, 3 μM Adriamycin 24 hours post-transfection, luciferase reporter. As to the method:
MDA-MB-468 cells have been transfected using a mixture containing lipofectamine, pLUC-BAX plasmid, β-galactosidase expression vector, SIMP1 and SIMP control peptides. The cells, 24 hours post-transfection, have been treated with 3 μM Adriamycin.
MDA-MB-468 cells have been transfected using a mixture containing lipofectamine, pLUC-BAX plasmid, pLUC-p21, β-galactosidase expression vector, SIMP1 peptides and SIMP1M and SIMP1KO derived mutant thereof. The cells, 24 hours post-transfection, have been treated with 3 μM Adriamicyn and then processed.
(§1) SKBR3, HT-29, MDA-MB-468 cell lines have been transfected with Lipofectamine 2000 according to the supplier instructions (InVitrogen).
(§2) Cells (1.5×10^5) have been transiently transfected using SIMP peptides, expression plasmids and reporter constructs as internal controls for transfection efficiency. After the transfection, SKBR3, HT-29 and MDA-MB-468 have been incubated with 3 μM ADR over 24 hours. Cells have been washed with cold PBS and re-suspended in lysis buffer (Promega) and incubated for 10 min at room temp. Insoluble material has been centrifuged and luciferase activity has been determined using a commercial kit with a luminometer (Turner).
Background: In a reporter assay the amount or activity of a reporter protein is the signal.

For assay [2], the system named is m-p53 His273 inhibition on p73 transcription activity. Description: Transactivation test with pLUC-BAX reporter in transiently transfected H1299 cells. The format is cell-based, human. The note with it: peptides 20 μM each. How it is done: (A) MDA-MB-468 (5×10^5) cells have been transfected using a lipofectamine containing mixture, βgal expression vector, which normalizes transfection efficiency, and SIMPI peptide (20 μM). Total cellular lysates (1 mg), have been immunoprecipitated with antibodies directed against p73 and immunoglobulins (IgG). Immunoprecipitates and an aliquot (50 μg) of total lysate after 12% acrylamide gel electrophoretic run have been transferred on nitrocellulose membrane and labelled with antibodies shown in the figure. (B) MDA-MB-468 cells, have been transfected using SIMP1 and SIMP5,6. peptides. Successively, cells have been washed and stimulated with 3 μM Adriamycin. Total obtained lysates (30 μg) have been assayed for the expression of PARP and BAX apoptotic proteins. Lysate has been normalized by assaying γ-tubulin expression. (C-D). Transactivation tests have been carried out by transient transfection of H1299 cells using a mixture containing lipofectamine, SIMP1, SIMP5,6 indicated plasmids (20 μM each) together with pLUC-BAX reporter vector. To each reaction mixture an equal amount of […] expression vector was added, in order to normalize the transfection efficiency. […]
To this end, we have analyzed the ability in blocking the His273 p53 induced inhibition on transcription activity. […]

The subject of assay [3] is HT29 (His-273) colon carcinoma cells. Nature of the assay: Transactivation test (pLUC-BAX) in Adriamycin treated HT29 cells. The format is cell-based, human. Conditions: 3 μM Adriamycin. How it is done: (A) In order to verify the SIMPI peptide specificity, independently from the cellular context, we tested SIMP1 peptides in some Adriamicyn treated colon carcinoma HT29 (His-273). cell lines. The cells have been transfected using a mixture containing lipofectamine, pLUC-BAX plasmid, β-galactosidase expression vector, SIMP1 and SIMP5M control peptides. 24 hours post-transfection, have been treated with 3 μM Adriamicyn. (B-C). Viability and inhibition assays have been carried out after transfection using SIMP1 and SIMP5M peptides in HT29 (colon cancer) and MDA-MB-468 (breast cancer) cell lines
as §1, §2

In the next assay the target is GST-p53 His175 (Homo sapiens, UniProt P04637, R175H). Description: Dot immunobinding test with purified GST-p53 fusion proteins. The note with it: 20 μg GST fusion purified proteins. The format is binding. How it is done: (A) Total extracts deriving from SKBR3, (His-175) HT29, (His-273) and H1299 (p53 free) tumour cells have been incubated (1 mg) on SIMP1 and SIMPIKO peptide labelled nitrocellulose membrane and Dot Blot analysed. In (B) the membranes have been incubated with 20 μg of wild type WT GST-p53 purified protein or GST-p53 His-175, GST-p53-His-175, 74-298 or GST alone. In both experiments dots have been detected by labelling the membranes with anti-p53 (DO1) antibody
Nitrocellulose membranes have been cut, washed with water and blotted on the paper filters. The peptides at 250 mM concentration have been transferred on membrane. Labelled membrane has been washed for 10 min. with TBST buffer (10 mM Tris-HCl pH 7.4, 150 mM NaCl, 0.05% (v/v) Tween-20) and then blocked for 45 min with TBST/5% milk. Then the membranes have been incubated for 6 hours at 4° C. in shaker with 1 mg of total protein extract or 20 μg of GST fusion purified proteins. Successively the membranes have been washed with TBST buffer and decorated with anti-p53 antibody (DO1) as a primary antibody. As secondary antibody horse peroxidase conjugated goat antibody has been used. Immunolabelled lanes have been detected using chemiluminescence analysis (Pierce).
The membranes decorated with SIMP peptides also have been incubated with GST-p53 His175, GST p53His74-298, GST WTp53 fusion proteins, GST control.

Entries after “also recorded” stand apart in the source; their conditions may differ.

For the sequence “FQQSSTAKSATW (p73 SIMP (aa 131-142)) [SIMP1]”, the “Adriamycin chemosensitivity / p73 transcription response” value in assay [1] is on record as “increases the Adriamycin sensitivity; also recorded: increase Adriamycin chemosensitivty; also recorded: increased p73 transcription response as an adriamycin response”. The “restoration of p73 transcription activity inhibited by m-p53 His273” value in assay [2] was “modify mutated p53/p73 protein complex restoring p73 oncosuppressive functions; also recorded: blocked the m-p53 His273 inhibition on p73 transcription activity”. Moreover, the “sensitivity to Adriamycin” value in assay [3] is reported as “made the same more sensitive to the treatment with Adriamycin”. The “reaction with GST-p53 fusion proteins (dot blot, anti-p53 DO1)” value with GST-p53 His175 was “no reaction was observed”.

Source of the values: US20120237614A1, “PEPTIDE ABLE TO DISRUPT THE PROTEIN COMPLEX BETWEEN THE HIS273 MUTADED P53 PROTEIN AND THE ONCOSUPPRESSIVE P73 PROTEIN IN TUMOR CELLS AND THERAPEUTIC USES THEREOF” (priority 2009, published 2012).
